Source: patent US12209102B2, “Heterocyclic compounds and uses thereof” (Kumquat Biosciences Inc., priority 2022, dated 2025)

Tests used:
K-Ras G12D = target: T1, K-Ras G12D (Homo sapiens, UniProt P01116, G12D); test: HTRF resonance energy transfer assay, K-Ras G12D / SOS1 interaction; format: biochemical; details: HTRF assay of Example 5; read-out: IC50 against K-Ras G12D
T1 construct: made in house; host or cells: E. coli BL21 (DE3)
Summary of the method: (§1)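 GST-tagged K-Ras (WT or mutant) bound to anti-GST-Eu donor was mixed with His-hSOS1 bound to anti-6His-XL665 acceptor in ~5 mM HEPES pH 7.4, 150 mM NaCl, 1 mM DTT, 0.05% BSA, 0.0025% Igepal. HTRF (ex 337, em 620/665 nm) was read after ~10 min or longer. IC50 came from the 665/620 ratio over duplicates from 10 μM to 0.01 μM.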

K-Ras G12S = target: T2, K-Ras G12S (Homo sapiens, UniProt P01116, G12S); test: HTRF resonance energy transfer assay, K-Ras G12S / SOS1 interaction; format: biochemical; details: HTRF assay of Example 5; read-out: IC50 against K-Ras G12S
T2 construct: made in house; host or cells: E. coli BL21 (DE3)
Summary of the method: as §1

K-Ras G12V = target: T3, K-Ras G12V (Homo sapiens, UniProt P01116, G12V); test: HTRF resonance energy transfer assay, K-Ras G12V / SOS1 interaction; format: biochemical; details: HTRF assay of Example 5; read-out: IC50 against K-Ras G12V
T3 construct: made in house; host or cells: E. coli BL21 (DE3)
Summary of the method: as §1

K-Ras WT = target: T4, K-Ras WT (Homo sapiens, UniProt P01116); test: HTRF resonance energy transfer assay, K-Ras WT / SOS1 interaction; format: biochemical; details: HTRF assay of Example 5; read-out: IC50 against K-Ras WT
T4 construct: made in house; host or cells: E. coli BL21 (DE3)
Summary of the method: as §1

GP2D cells = test: Ras cellular assay, growth of cells with K-Ras G12D mutation (CellTiter-Glo); format: cell-based; details: cell growth, Example 9, G12D mutation, read-out: IC50 against GP2D cells
A549 cells = test: Ras cellular assay, growth of cells with K-Ras G12S mutation (CellTiter-Glo); format: cell-based; details: Homo sapiens, cell growth, Example 9, G12S mutation, read-out: IC50 against A549 cells
Summary of the method: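 A549 cells (K-Ras G12S) in RPMI-1640 with 10% heat-inactivated FBS, seeded e.g. 800 per well in standard or ultra-low-attachment 384-well plates, treated next day with a dilution series (e.g. 10-point, 3-fold). Viability by CellTiter-Glo luminescence about 6 days later; IC50 from four-parameter fit.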

SW620 cells = test: Ras cellular assay, growth of cells with K-Ras G12V mutation (CellTiter-Glo); format: cell-based; details: Homo sapiens, SW-620; cell growth, Example 9, G12V mutation; read-out: IC50 against SW620 cells
Summary of the method: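 SW620 (K-Ras G12V) cells, e.g. 800/well in RPMI-1640 with 10% heat-inactivated FBS on standard or ultra-low attachment plates, were dosed the day after plating with e.g. a 10-point 3-fold series. Viability by CellTiter-Glo luminescence about 6 days later; IC50 from four-parameter fit.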

T3 sequence (P01116 1-188 isoform P01116-2 G12V): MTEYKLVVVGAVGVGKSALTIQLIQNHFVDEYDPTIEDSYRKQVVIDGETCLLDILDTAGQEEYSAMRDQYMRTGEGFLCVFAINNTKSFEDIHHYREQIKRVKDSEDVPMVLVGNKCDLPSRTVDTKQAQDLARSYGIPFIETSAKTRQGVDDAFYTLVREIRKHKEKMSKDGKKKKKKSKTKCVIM
T4 sequence (P01116 1-188 isoform P01116-2): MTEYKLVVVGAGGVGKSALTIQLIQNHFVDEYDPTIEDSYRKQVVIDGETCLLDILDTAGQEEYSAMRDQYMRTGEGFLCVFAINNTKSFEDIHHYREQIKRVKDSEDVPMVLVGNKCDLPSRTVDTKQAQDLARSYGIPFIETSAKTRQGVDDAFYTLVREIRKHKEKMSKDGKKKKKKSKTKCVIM
T1 sequence (P01116 1-188 isoform P01116-2 G12D): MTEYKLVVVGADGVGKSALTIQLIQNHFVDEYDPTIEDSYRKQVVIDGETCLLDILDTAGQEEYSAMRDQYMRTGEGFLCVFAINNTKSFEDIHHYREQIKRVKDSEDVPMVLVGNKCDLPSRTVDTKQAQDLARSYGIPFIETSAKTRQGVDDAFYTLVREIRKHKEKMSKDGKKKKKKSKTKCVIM
T2 sequence (P01116 1-188 isoform P01116-2 G12S): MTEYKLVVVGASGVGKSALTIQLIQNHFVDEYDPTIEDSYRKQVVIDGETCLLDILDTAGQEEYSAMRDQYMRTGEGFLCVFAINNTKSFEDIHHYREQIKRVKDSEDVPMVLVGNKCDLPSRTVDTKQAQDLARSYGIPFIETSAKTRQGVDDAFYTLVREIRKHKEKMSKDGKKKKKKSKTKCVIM

| SMILES | IC50 (K-Ras G12D) [nM] | IC50 (K-Ras G12S) [nM] | IC50 (K-Ras G12V) [nM] | IC50 (K-Ras WT) [nM] | IC50 (GP2D cells) [nM] | IC50 (A549 cells) [µM] | IC50 (SW620 cells) [µM] |
| --- | --- | --- | --- | --- | --- | --- | --- |
| N#Cc1c(N)sc2c(F)ccc(-c3c(Cl)c4c5c(nc(OC[C@@]67CCCN6C[C@H](F)C7)nc5c3F)N(C3CCN(C(=O)COC5CC5)C3)CCO4)c12 (stereo partly drawn) [Compound 812, 2-amino-4-(8-chloro-4-(1-(2-cyclopropoxyacetyl)pyrrolidin-3-yl)-10-fluoro-2-(((2R,7aS)-2-fluorotetrahydro-1H-pyrrolizin-7a(5H)-yl)methoxy)-5,6-dihydro-4H-[1,4]oxazepino[5,6,7-de]quinazolin-9-yl)-7-fluorobenzo[b]thiophene-3-carbonitrile] | < 100 | < 100 | < 100 | < 100 | < 500 | < 5 | < 5 |
| C[C@H](O)[C@H]1COc2c(Cl)c(-c3ccc(F)c4sc(N)c(C#N)c34)c(F)c3nc(OC[C@@]45CCCN4C[C@H](F)C5)nc(c23)N1CC(F)F [Compound 817, 2-amino-4-((5R)-8-chloro-4-(2,2-difluoroethyl)-10-fluoro-2-(((2R,7aS)-2-fluorotetrahydro-1H-pyrrolizin-7a(5H)-yl)methoxy)-5-((S)-1-hydroxyethyl)-5,6-dihydro-4H-[1,4]oxazepino[5,6,7-de]quinazolin-9-yl)-7-fluorobenzo[b]thiophene-3-carbonitrile] | < 100 | < 100 | < 100 | < 100 | < 500 | < 5 | < 5 |
| N#Cc1c(N)sc2c(F)ccc(-c3c(Cl)c4c5c(nc(OC[C@@]67CCCN6C[C@H](F)C7)nc5c3F)N(C3CCCOC3)CCO4)c12 (stereo partly drawn) [Compound 819, 2-amino-4-(8-chloro-10-fluoro-2-(((2R,7aS)-2-fluorotetrahydro-1H-pyrrolizin-7a(5H)-yl)methoxy)-4-(tetrahydro-2H-pyran-3-yl)-5,6-dihydro-4H-[1,4]oxazepino[5,6,7-de]quinazolin-9-yl)-7-fluorobenzo[b]thiophene-3-carbonitrile] | < 100 | < 100 | < 100 | < 100 | < 500 | < 5 | < 5 |
| COC1CN(C(=O)N2CCC(N3CCOc4c(Cl)c(-c5ccc(F)c6sc(N)c(C#N)c56)c(F)c5nc(OC[C@@]67CCCN6C[C@H](F)C7)nc3c45)C2)C1 (stereo partly drawn) [Compound 834, 2-amino-4-(8-chloro-10-fluoro-2-(((2R,7aS)-2-fluorotetrahydro-1H-pyrrolizin-7a(5H)-yl)methoxy)-4-(1-(3-methoxyazetidine-1-carbonyl)pyrrolidin-3-yl)-5,6-dihydro-4H-[1,4]oxazepino[5,6,7-de]quinazolin-9-yl)-7-fluorobenzo[b]thiophene-3-carbonitrile] | < 100 | < 100 | < 100 | < 100 | < 500 | < 5 | < 5 |
| C[C@H]1COc2c(Cl)c(-c3ccc(F)c4sc(N)c(C#N)c34)c(F)c3nc(OC[C@@]45CCCN4C[C@H](F)C5)nc(c23)N1CCC(F)F [Compound 835, 2-amino-4-((5S)-8-chloro-4-(3,3-difluoropropyl)-10-fluoro-2-(((2R,7aS)-2-fluorotetrahydro-1H-pyrrolizin-7a(5H)-yl)methoxy)-5-methyl-5,6-dihydro-4H-[1,4]oxazepino[5,6,7-de]quinazolin-9-yl)-7-fluorobenzo[b]thiophene-3-carbonitrile] | < 100 | < 100 | < 100 | < 100 | < 500 | < 5 | < 5 |
| N#Cc1c(N)sc2c(F)ccc(-c3c(Cl)c4c5c(nc(OC[C@@]67CCCN6C[C@H](F)C7)nc5c3F)N(CC3CC3(F)F)CCO4)c12 (stereo partly drawn) [Compound 850, 2-amino-4-(8-chloro-4-((2,2-difluorocyclopropyl)methyl)-10-fluoro-2-(((2R,7aS)-2-fluorotetrahydro-1H-pyrrolizin-7a(5H)-yl)methoxy)-5,6-dihydro-4H-[1,4]oxazepino[5,6,7-de]quinazolin-9-yl)-7-fluorobenzo[b]thiophene-3-carbonitrile] | < 100 | < 100 | < 100 | < 100 | < 500 | < 5 | < 5 |
| N#Cc1c(N)sc2c(F)ccc(-c3c(Cl)c4c5c(nc(OC[C@@]67CCCN6C[C@H](F)C7)nc5c3F)N(C3CCCC(O)C3)CCO4)c12 (stereo partly drawn) [Compound 854, 2-amino-4-(8-chloro-10-fluoro-2-(((2R,7aS)-2-fluorotetrahydro-1H-pyrrolizin-7a(5H)-yl)methoxy)-4-(3-hydroxycyclohexyl)-5,6-dihydro-4H-[1,4]oxazepino[5,6,7-de]quinazolin-9-yl)-7-fluorobenzo[b]thiophene-3-carbonitrile] | < 100 | < 100 | < 100 | < 100 | < 500 | < 5 | < 5 |
| N#Cc1c(N)sc2c(F)ccc(-c3c(Cl)c4c5c(nc(OC[C@@]67CCCN6C[C@H](F)C7)nc5c3F)N(C3CCN(C(=O)C5CC(C(F)F)C5)C3)CCO4)c12 (stereo partly drawn) [Compound 864, 2-amino-4-(8-chloro-4-(1-(3-(difluoromethyl)cyclobutane-1-carbonyl)pyrrolidin-3-yl)-10-fluoro-2-(((2R,7aS)-2-fluorotetrahydro-1H-pyrrolizin-7a(5H)-yl)methoxy)-5,6-dihydro-4H-[1,4]oxazepino[5,6,7-de]quinazolin-9-yl)-7-fluorobenzo[b]thiophene-3-carbonitrile] | < 100 | < 100 | < 100 | < 100 | < 500 | < 5 | < 5 |
| N#Cc1c(N)sc2c(F)ccc(-c3c(Cl)c4c5c(nc(OC[C@@]67CCCN6C[C@H](F)C7)nc5c3F)N(CC3(O)CC3)CCO4)c12 [Compound 868, 2-amino-4-(8-chloro-10-fluoro-2-(((2R,7aS)-2-fluorotetrahydro-1H-pyrrolizin-7a(5H)-yl)methoxy)-4-((1-hydroxycyclopropyl)methyl)-5,6-dihydro-4H-[1,4]oxazepino[5,6,7-de]quinazolin-9-yl)-7-fluorobenzo[b]thiophene-3-carbonitrile] | < 100 | < 100 | < 100 | < 100 | < 500 | < 5 | < 5 |
| N#Cc1c(N)sc2c(F)ccc(-c3c(Cl)c4c5c(nc(OC[C@@]67CCCN6C[C@H](F)C7)nc5c3F)N(C3CCN(C(=O)CC5CCOCC5)C3)CCO4)c12 (stereo partly drawn) [Compound 869, 2-amino-4-(8-chloro-10-fluoro-2-(((2R,7aS)-2-fluorotetrahydro-1H-pyrrolizin-7a(5H)-yl)methoxy)-4-(1-(2-(tetrahydro-2H-pyran-4-yl)acetyl)pyrrolidin-3-yl)-5,6-dihydro-4H-[1,4]oxazepino[5,6,7-de]quinazolin-9-yl)-7-fluorobenzo[b]thiophene-3-carbonitrile] | < 100 | < 100 | < 100 | < 100 | < 500 | < 5 | < 5 |
| N#Cc1c(N)sc2c(F)ccc(-c3c(Cl)c4c5c(nc(OC[C@@]67CCCN6C[C@H](F)C7)nc5c3F)N(C3COCC3O)CCO4)c12 (stereo partly drawn) [Compound 874, 2-amino-4-(8-chloro-10-fluoro-2-(((2R,7aS)-2-fluorotetrahydro-1H-pyrrolizin-7a(5H)-yl)methoxy)-4-(4-hydroxytetrahydrofuran-3-yl)-5,6-dihydro-4H-[1,4]oxazepino[5,6,7-de]quinazolin-9-yl)-7-fluorobenzo[b]thiophene-3-carbonitrile] | < 100 | < 100 | < 100 | < 100 | < 500 | < 5 | < 5 |
| COC1CC(C(=O)N2CCC(N3CCOc4c(Cl)c(-c5ccc(F)c6sc(N)c(C#N)c56)c(F)c5nc(OC[C@@]67CCCN6C[C@H](F)C7)nc3c45)C2)C1 (stereo partly drawn) [Compound 881, 2-amino-4-(8-chloro-10-fluoro-2-(((2R,7aS)-2-fluorotetrahydro-1H-pyrrolizin-7a(5H)-yl)methoxy)-4-(1-(3-methoxycyclobutane-1-carbonyl)pyrrolidin-3-yl)-5,6-dihydro-4H-[1,4]oxazepino[5,6,7-de]quinazolin-9-yl)-7-fluorobenzo[b]thiophene-3-carbonitrile] | < 100 | < 100 | < 100 | < 100 | < 500 | < 5 | < 5 |
